The results in this text go back to patent US8609836B2, “4-aryl-2-anilino-pyrimidines” (Janssen Pharmaceutica NV, priority 2008, dated 2013).

A value given as a limit tells only on which side of the number the result lay.

The target in one test is GSK3β (h) (Homo sapiens, UniProt P49841). The experiment in a line: GSK-3β human kinase inhibition, SPA. The test is classed as biochemical. As to conditions: read-out: GSK3b pIC50 (converted). The method in brief:
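Radiometric: 33P-labelled peptide captured on streptavidin SPA beads after EDTA stop and imaged on Leadseeker. Reaction ran 1 h at RT, 1 μM cold ATP with 2 nM [γ-33P]ATP, 1 μM biotin-peptide substrate, human GSK3β 1 μg/ml, pH 7.4 Tris buffer.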

In the next test the target is CDK1/CyclinB (h) (Homo sapiens, UniProt P06493). Description: CDK1/CyclinB human kinase inhibition, Invitrogen's FRET assay (Z'lyte). In kind it is biochemical. As to conditions: read-out: CDK1 pIC50 (converted). Put shortly: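 Read-out is the 460 nm/538 nm emission ratio (390 nm excitation) after a 60 min protease development step. Before that, 10 μM ATP and 2 μM Z'lyte Ser/Thr peptide 12 react 60 min at room temperature with 0.2 μg/ml human CDK1/CyclinB in Hepes pH 7.5 containing MgCl2, EGTA and Brij-35.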

For the next test, the target named is CDK4/CyclinD1 (h) (Homo sapiens, UniProt P11802). Description: CDK4/CyclinD1 human kinase inhibition, SPA with GST-pRb substrate. As to conditions: read-out: CDK4 pIC50 (converted). The test is classed as biochemical. Put shortly:
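Scintillation proximity format: after EDTA/Triton stop containing glutathione SPA beads, 33P incorporation was counted. The reaction ran 60 min at room temperature in Hepes pH 7.5 with NaF, MgCl2, DTT, using 2.5 μg/ml human CDK4/CyclinD1, 40 μg/ml GST-pRb substrate and 2 nM [γ-33P]ATP.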

Another test has as its target PLK2 (h) (Homo sapiens, UniProt Q9NYY3). The experiment in a line: PLK2 human kinase inhibition, SPA. The conditions noted are these: read-out: PLK2 pIC50 (converted). In kind it is biochemical. The method in brief:
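33P incorporation into a biotinylated peptide (2 μM) was captured on streptavidin PVT beads and imaged on Leadseeker. Enzyme at 30 μg/ml, ATP 0.1 μM with 2 nM [γ-33P]ATP, Hepes pH 8.0 with MnCl2 and DTT. Incubation was 20 min at room temperature.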

In another test the target is PLK3 (h) (Homo sapiens, UniProt Q9H4B4). Description: PLK3 human kinase inhibition, SPA. In kind it is biochemical. The conditions noted are these: read-out: PLK3 pIC50 (converted). The method in brief: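 Radiometric scintillation proximity format at pH 8.0 (Hepes, MnCl2, DTT). The 2 μM biotin-peptide substrate is phosphorylated by PLK3 (h) (30 μg/ml) using 0.1 μM ATP traced with 33P, for 20 min at room temperature. EDTA stop; phosphopeptide captured on streptavidin beads and imaged.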

In another test the test system is HCT-116. Description: Cellular proliferation assay (Alamar blue), HCT-116. The test is classed as cell-based. The conditions noted are these: Homo sapiens, 10% FCS, 72 hours with compound, Alamar blue 4 h. Put shortly:
(§1)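 Growth inhibition measured after 72 h incubation with compound, following 24 h pre-culture at 37° C, 5% CO2 with 10% FCS. Resazurin-based read-out at 544/590 nm after 4 h (HCT-116), 6 h (U87-MG) or 24 h (A2780, MDA-MB-231); results relative to control.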
For orientation: The colour change of resazurin is a common sign of viable cells or microbes.

The next test relates to H1299. The experiment in a line: Cellular proliferation assay (Alamar blue), H1299. In kind it is cell-based. The conditions noted are these: Homo sapiens, NCI-H1299; 10% FCS; 72 hours with compound; Alamar blue 4 h. Put shortly:
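This proliferation assay on NCI-H1299 cells used an initial 24-hour compound-free incubation after seeding, followed by 72 hours of compound treatment with 10% FCS serum at 37° C. and 5% (v/v) CO2. Viable cells were quantified by a 4 h Alamar blue incubation and fluorescent plate reading at 544 nm/590 nm, and effects were expressed relative to control cells.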

For a further test, the system named is U87-MG. The experiment in a line: Cellular proliferation assay (Alamar blue), U87-MG. The test is classed as cell-based. The conditions noted are these: Homo sapiens, U-87 MG; 10% FCS; 72 hours with compound; Alamar blue 6 h; read-out: U87-MG (cellular proliferation assay, Table 4) (converted). The method in brief: as §1
Another test relates to A2780. Description: Cellular proliferation assay (Alamar blue), A2780. The test is classed as cell-based. The conditions noted are these: Homo sapiens, 10% FCS, 72 hours with compound, Alamar blue 24 h, read-out: A2780 (cellular proliferation assay, Table 4) (converted). The method in brief: as §1
A further test has as its system MDA-MB-231. The experiment in a line: Cellular proliferation assay (Alamar blue), MDA-MB-231. The test is classed as cell-based. As to conditions: Homo sapiens, 10% FCS, 72 hours with compound, Alamar blue 24 h, read-out: MDA/MB231 (cellular proliferation assay, Table 4) (converted). The method in brief:
as §1

PLK3 (h), sequence (Q9H4B4 whole entry): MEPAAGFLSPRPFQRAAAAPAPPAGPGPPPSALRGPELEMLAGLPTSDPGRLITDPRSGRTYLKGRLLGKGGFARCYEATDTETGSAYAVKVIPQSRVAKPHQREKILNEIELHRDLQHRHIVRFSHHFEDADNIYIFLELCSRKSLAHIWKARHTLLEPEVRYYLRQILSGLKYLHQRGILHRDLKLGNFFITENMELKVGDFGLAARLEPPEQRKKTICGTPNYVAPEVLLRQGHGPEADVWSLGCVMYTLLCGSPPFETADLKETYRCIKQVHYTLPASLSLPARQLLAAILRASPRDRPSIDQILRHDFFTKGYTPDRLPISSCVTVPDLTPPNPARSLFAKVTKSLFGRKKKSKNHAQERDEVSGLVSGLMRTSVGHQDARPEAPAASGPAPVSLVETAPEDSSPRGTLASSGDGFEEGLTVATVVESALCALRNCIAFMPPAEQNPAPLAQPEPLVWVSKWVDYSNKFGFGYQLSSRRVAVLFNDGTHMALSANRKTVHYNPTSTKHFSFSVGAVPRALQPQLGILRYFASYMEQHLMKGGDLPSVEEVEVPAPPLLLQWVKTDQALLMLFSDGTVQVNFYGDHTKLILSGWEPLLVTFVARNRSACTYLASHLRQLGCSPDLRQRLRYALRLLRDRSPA
GSK3β (h), sequence (P49841 whole entry): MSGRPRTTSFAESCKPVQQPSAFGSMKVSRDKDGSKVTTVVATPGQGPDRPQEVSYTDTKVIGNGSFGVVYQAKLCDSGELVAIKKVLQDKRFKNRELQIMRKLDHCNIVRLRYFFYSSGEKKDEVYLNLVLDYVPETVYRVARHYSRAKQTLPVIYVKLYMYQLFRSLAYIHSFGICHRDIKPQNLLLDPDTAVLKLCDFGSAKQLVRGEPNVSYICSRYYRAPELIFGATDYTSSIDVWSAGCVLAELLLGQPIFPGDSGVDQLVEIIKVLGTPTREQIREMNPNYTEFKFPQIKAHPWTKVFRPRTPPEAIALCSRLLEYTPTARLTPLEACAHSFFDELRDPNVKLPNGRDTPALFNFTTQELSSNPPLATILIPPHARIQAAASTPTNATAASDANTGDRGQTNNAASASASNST
CDK1/CyclinB (h), sequence (P06493 whole entry): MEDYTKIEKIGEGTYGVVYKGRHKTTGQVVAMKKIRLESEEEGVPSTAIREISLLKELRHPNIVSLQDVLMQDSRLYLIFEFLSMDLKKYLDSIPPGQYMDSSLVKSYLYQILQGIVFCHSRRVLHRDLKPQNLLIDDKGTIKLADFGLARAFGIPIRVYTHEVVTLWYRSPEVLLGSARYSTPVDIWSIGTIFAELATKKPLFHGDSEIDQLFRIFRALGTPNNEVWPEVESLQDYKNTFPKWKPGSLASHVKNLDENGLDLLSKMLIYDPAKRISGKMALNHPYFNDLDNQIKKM
CDK1/CyclinB (h), sequence (P14635 whole entry partner): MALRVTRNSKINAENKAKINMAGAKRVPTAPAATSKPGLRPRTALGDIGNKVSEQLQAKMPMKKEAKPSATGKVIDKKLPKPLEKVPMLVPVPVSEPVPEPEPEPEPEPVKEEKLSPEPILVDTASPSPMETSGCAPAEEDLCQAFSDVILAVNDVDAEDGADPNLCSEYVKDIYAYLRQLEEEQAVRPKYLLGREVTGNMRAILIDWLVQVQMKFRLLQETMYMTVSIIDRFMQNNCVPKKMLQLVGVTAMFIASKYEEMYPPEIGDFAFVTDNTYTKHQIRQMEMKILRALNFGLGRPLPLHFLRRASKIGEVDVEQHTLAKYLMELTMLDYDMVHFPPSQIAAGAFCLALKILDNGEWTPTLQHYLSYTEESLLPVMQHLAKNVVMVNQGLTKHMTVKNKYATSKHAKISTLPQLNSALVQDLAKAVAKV
PLK2 (h), sequence (Q9NYY3 whole entry): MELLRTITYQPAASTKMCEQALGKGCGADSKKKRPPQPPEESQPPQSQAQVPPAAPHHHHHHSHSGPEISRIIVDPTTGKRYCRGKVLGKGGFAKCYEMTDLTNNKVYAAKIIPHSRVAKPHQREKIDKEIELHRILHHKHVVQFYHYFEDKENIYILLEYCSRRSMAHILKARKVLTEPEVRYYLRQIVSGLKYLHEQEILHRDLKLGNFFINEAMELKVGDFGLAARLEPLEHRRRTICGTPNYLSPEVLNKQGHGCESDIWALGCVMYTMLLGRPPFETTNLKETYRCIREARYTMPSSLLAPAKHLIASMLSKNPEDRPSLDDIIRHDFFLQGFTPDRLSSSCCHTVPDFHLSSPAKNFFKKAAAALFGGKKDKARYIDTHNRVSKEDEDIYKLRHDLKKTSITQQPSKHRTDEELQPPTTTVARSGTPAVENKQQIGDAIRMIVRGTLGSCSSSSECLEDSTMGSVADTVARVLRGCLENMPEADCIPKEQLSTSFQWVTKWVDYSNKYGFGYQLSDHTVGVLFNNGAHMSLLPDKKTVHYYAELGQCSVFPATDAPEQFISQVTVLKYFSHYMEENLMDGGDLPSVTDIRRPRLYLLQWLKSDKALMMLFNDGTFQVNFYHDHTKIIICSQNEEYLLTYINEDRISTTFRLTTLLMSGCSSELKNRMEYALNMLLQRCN
CDK4/CyclinD1 (h), sequence (P11802 whole entry): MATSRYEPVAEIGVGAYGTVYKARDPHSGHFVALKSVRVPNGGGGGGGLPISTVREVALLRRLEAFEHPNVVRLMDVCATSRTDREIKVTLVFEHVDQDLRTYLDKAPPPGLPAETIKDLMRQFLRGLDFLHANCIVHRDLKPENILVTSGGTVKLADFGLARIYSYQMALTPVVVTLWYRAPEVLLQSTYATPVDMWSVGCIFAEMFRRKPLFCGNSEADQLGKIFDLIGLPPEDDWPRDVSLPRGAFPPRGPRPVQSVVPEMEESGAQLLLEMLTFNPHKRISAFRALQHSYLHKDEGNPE
CDK4/CyclinD1 (h), sequence (P24385 whole entry partner): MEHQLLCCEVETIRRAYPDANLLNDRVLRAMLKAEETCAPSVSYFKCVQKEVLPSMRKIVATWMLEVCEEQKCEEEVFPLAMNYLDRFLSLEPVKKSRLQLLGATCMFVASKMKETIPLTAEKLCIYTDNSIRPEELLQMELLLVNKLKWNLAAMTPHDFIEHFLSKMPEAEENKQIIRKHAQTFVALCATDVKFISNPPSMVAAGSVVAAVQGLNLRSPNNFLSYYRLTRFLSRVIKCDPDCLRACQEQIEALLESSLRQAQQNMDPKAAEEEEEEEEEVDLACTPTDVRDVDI

For `C[C@@H]1NCc2cc(ccc2N2CCOCC2)Nc2nccc(n2)-c2cccc(c2)CNC1=O` [Compound 182], the IC50 was 0.661 µM at GSK3β (h); 7.59 µM on CDK1/CyclinB (h); 6.03 µM on CDK4/CyclinD1 (h); > 10 µM at PLK2 (h); > 10 µM at PLK3 (h); > 10 µM in the test on HCT-116. Moreover, the IC50 in the test with H1299, in the test with U87-MG, with A2780 and with MDA-MB-231 was > 10 µM in each case.
With `CN1CCN(C)c2ccc(cn2)-c2ccnc(n2)Nc2cc(c3c(c2)OCO3)CN2CCC[C@H]2C1=O` [Compound 168], the IC50 on GSK3β (h) was 1.45 µM; on CDK1/CyclinB (h) it was 8.13 µM; at CDK4/CyclinD1 (h), 2.14 µM; on PLK2 (h), > 10 µM; at PLK3 (h), > 10 µM; with HCT-116 it was > 10 µM. Besides, the IC50 is > 10 µM in the test with H1299, 6.76 µM in the test with U87-MG, > 10 µM in the test with A2780 and > 10 µM in the test on MDA-MB-231.
Regarding `CN1CCN(C(=O)c2ccc3cc2CN2CCC[C@H]2C(=O)NCc2cccc(c2)-c2ccnc(n2)N3)CC1` [Compound 25], the IC50 was 0.0813 µM on GSK3β (h); > 10 µM at CDK1/CyclinB (h); > 10 µM on CDK4/CyclinD1 (h); > 10 µM at PLK2 (h); > 10 µM at PLK3 (h); 3.72 µM with HCT-116. Also, the IC50 in the test with H1299 was 3.31 µM; with U87-MG, > 10 µM; with A2780, 4.47 µM; with MDA-MB-231, > 10 µM.
`COc1cc2cc(c1)Nc1nccc(n1)-c1ccc(OC)c(c1)CN(C)CCCNC(=O)C1CCN(CC1)C2` [Compound 73]: the IC50 on GSK3β (h) was > 10 µM; at CDK1/CyclinB (h), > 10 µM; on CDK4/CyclinD1 (h) it was > 10 µM; at PLK2 (h) it was > 10 µM; at PLK3 (h), > 10 µM; in the test on HCT-116 it was 3.09 µM. Besides, the IC50 with H1299 was > 10 µM; in the test on U87-MG it was 5.13 µM; in the test on A2780, > 10 µM; in the test on MDA-MB-231, > 10 µM.
As to `COc1cc2cc(c1OC)CN1CCC[C@H]1C(=O)NCc1cccc(c1)-c1ccnc(n1)N2` [Compound 23], the IC50 on GSK3β (h) is 0.195 µM; at CDK1/CyclinB (h) it was > 10 µM; at CDK4/CyclinD1 (h), > 10 µM; at PLK2 (h), > 10 µM; at PLK3 (h), > 10 µM; in the test on HCT-116 it was > 10 µM. For the same compound, the IC50 with H1299, in the test on U87-MG, with A2780 and in the test on MDA-MB-231 was > 10 µM each time.
For `O=C1NCc2cccc(c2)-c2ccnc(n2)Nc2ccc(N3CCOCC3)c(c2)CN[C@H]1Cc1ccccc1` [Compound 18], the IC50 on GSK3β (h) was 0.389 µM; on CDK1/CyclinB (h), > 10 µM; at CDK4/CyclinD1 (h), > 10 µM; on PLK2 (h) it was > 10 µM; on PLK3 (h), > 10 µM; in the test with HCT-116, 6.76 µM. In addition, the IC50 is > 10 µM with H1299, 6.76 µM in the test on U87-MG, 9.33 µM in the test on A2780 and > 10 µM in the test on MDA-MB-231.
Turning to `O=C1NCc2cccc(c2)-c2ccnc(n2)Nc2ccc(cc2)CN2C[C@H](O)C[C@@H]12` [Compound 55], the IC50 at GSK3β (h), at CDK1/CyclinB (h), on CDK4/CyclinD1 (h), on PLK2 (h), at PLK3 (h) and in the test on HCT-116 was > 10 µM throughout. The IC50 with H1299, in the test with U87-MG, in the test on A2780 and in the test on MDA-MB-231 was > 10 µM in each case.
As to `CN1CCNC(=O)[C@@H]2CCCN2Cc2cc(cc(N3CCOCC3)c2)Nc2nccc(n2)-c2ccc(cc2)C1` [Compound 154], the IC50 at GSK3β (h) is > 10 µM; on CDK1/CyclinB (h), > 10 µM; at CDK4/CyclinD1 (h), > 10 µM; on PLK2 (h), > 3.02 µM; at PLK3 (h), > 10 µM; with HCT-116, > 10 µM. In addition, the IC50 with H1299, with U87-MG, in the test with A2780 and in the test with MDA-MB-231 was > 10 µM each time.
As for `O=C1NCc2cccc(c2)-c2ccnc(n2)Nc2cc(ccc2Cl)CN2C[C@H](O)C[C@@H]12` [Compound 52], the IC50 on GSK3β (h), on CDK1/CyclinB (h), on CDK4/CyclinD1 (h), at PLK2 (h), on PLK3 (h) and in the test with HCT-116 was > 10 µM each time. Besides, the IC50 with H1299, with U87-MG, in the test on A2780 and with MDA-MB-231 was > 10 µM throughout.
`COc1cc2cc(c1OC)CN1CCC[C@H]1C(=O)N(C)CCN(C)c1cc(ccn1)-c1ccnc(n1)N2` [Compound 17]: the IC50 was 0.851 µM on GSK3β (h); 8.13 µM on CDK1/CyclinB (h); > 10 µM on CDK4/CyclinD1 (h); > 10 µM on PLK2 (h); > 10 µM on PLK3 (h); > 10 µM with HCT-116. Also, the IC50 with H1299, in the test with U87-MG, in the test with A2780 and with MDA-MB-231 was > 10 µM in each case.
For the compound `O=C1NCc2cccc(c2)-c2ccnc(n2)Nc2ccc(N3CCOCC3)c(c2)CN2CCC1CC2` [Compound 95], the IC50 at GSK3β (h) is 3.72 µM; on CDK1/CyclinB (h), 7.24 µM; on CDK4/CyclinD1 (h), 1.29 µM; on PLK2 (h), > 10 µM; at PLK3 (h) it was > 10 µM; in the test on HCT-116, > 10 µM. In addition, the IC50 in the test on H1299, with U87-MG, with A2780 and in the test with MDA-MB-231 was > 10 µM in each case.
On to `CN1CCC(NC(=O)c2ccc3cc2CN2CCC[C@H]2C(=O)NCc2cccc(c2)-c2ccnc(n2)N3)CC1` [Compound 47], for which the IC50 at GSK3β (h) was 0.398 µM; on CDK1/CyclinB (h) it was 2 µM; at CDK4/CyclinD1 (h) it was 1.2 µM; on PLK2 (h), > 10 µM; at PLK3 (h), > 1 µM; with HCT-116, 2.45 µM. Also, the IC50 is 9.55 µM in the test on H1299, 7.08 µM with U87-MG, 3.72 µM in the test on A2780 and 5.13 µM in the test with MDA-MB-231.
Consider `O=C1NCc2ccc(cc2)-c2ccnc(n2)Nc2ccc(N3CCOCC3)c(c2)CN2C[C@H](O)C[C@@H]12` [Compound 56], for which the IC50 at GSK3β (h), at CDK1/CyclinB (h), on CDK4/CyclinD1 (h), on PLK2 (h), at PLK3 (h) and in the test with HCT-116 was > 10 µM each time. Further, the IC50 with H1299, in the test on U87-MG, with A2780 and in the test with MDA-MB-231 was > 10 µM throughout.
`C[C@@H]1NCCc2cccc(c2)-c2ccnc(n2)Nc2ccc(N3CCOCC3)c(c2)CNC1=O` [Compound 100]: the IC50 is 0.0759 µM at GSK3β (h); 0.151 µM at CDK1/CyclinB (h); 0.2 µM at CDK4/CyclinD1 (h); > 10 µM at PLK2 (h); > 10 µM on PLK3 (h); 0.724 µM with HCT-116. The IC50 with H1299 is 2.95 µM; with U87-MG, 0.603 µM; in the test on A2780 it was 3.02 µM; with MDA-MB-231, 3.47 µM.
